Test results from patent publication US11795151B2, “Benzotriazole compound” (MIYOSHI OIL & FAT CO., LTD., priority 2017, dated 2023).

Experiments:
Format in all cases: physicochemical
[1] = Evaluation of UV absorption performance (1): absorbance spectra in chloroform; conditions: 100 μM
Protocol: Compounds 1 to 12 were diluted with 100 μM of chloroform, placed in a 10-mm quartz cell, and the absorbance spectra were measured using an ultraviolet-visible spectrophotometer (V-550, manufactured by JASCO Corporation)(FIGS. 1 to 12).
The absorption peak (maximum absorption wavelength: λmax) and absorbance in the wavelength range of 350 to 390 nm were read from the absorption spectra of Compounds 1 to 12, and the molar extinction coefficient of the peak (maximum molar extinction coefficient: εmax) was obtained by the following equation (able 1). Molar extinction coefficient:εmax(L/(mol·cm))=A:Absorbance/[c:Mol concentration(mol/L)×1:Cell optical length(cm)] [Equation 1]
In addition, from the absorption spectra of Compounds 1 to 12, assuming that an intersection of a long-wavelength side absorption spectrum in the absorption peak at 350 to 390 nm and a baseline (a line where the slope of the absorption spectrum at 380 to 500 nm is zero) is set as a […] (for example: FIG. 1), the absolute value of the slope of the absorption peak on the long-wavelength side in the wavelength region at 350 to 390 nm was obtained by the following equation: |Slope of absorption peak on long wavelength side in wavelength region of 350 to 390 nm|=|(Absorbance at peak end−Absorbance at absorption peak in wavelength region of 350 to 390 nm)/(Absorption wavelength at peak end−Wave length at absorption peak in wavelength region of 350 to 390 nm)| [Equation 2]

[2] = Evaluation of 5% weight reduction temperature (2) (TG/DTA); conditions: temperature increasing rate 10° C./min, 25° C. to 550° C.
Protocol: The compounds of the present invention were measured using a differential thermogravimetric simultaneous measurement device (TG/DTA6200, manufactured by SII Corporation) at a temperature increasing rate of 10° C./min and within a measurement range of 25° C. to 550° C., and the temperature at which 5 w % reduction as the weight change (TG) took place was read (Table 9).

[3] = Evaluation of UV absorption performance (2): absorbance spectra in chloroform; conditions: 100 μM
Protocol: Compounds 11 to 28 were diluted with 100 μM of chloroform and placed in a 10-mm quartz cell, and the absorbance spectra were measured using an ultraviolet-visible spectrophotometer (V-550, manufactured by JASCO Corporation)(FIGS. 11,12,14 to 29).
The absorption peak (maximum absorption wavelength: max) and absorbance in the wavelength range of 350 to 390 nm were read from the absorption spectra of Compounds 11 to 28, and a molar extinction coefficient (maximum molar extinction coefficient: εmax) of the peak was obtained by the following formula (Table 7): Molar extinction coefficient:εmax(L/(mol·cm))=A:Absorbance/[c:Mol concentration(mol/L)×1:Cell optical length(cm)] [Equation 3]
In addition, from the absorption spectra of Compounds 11 to 28, assuming that an intersection of a long-wavelength side absorption spectrum in the absorption peak at 350 to 390 nm and a baseline (a line where the slope of the absorption spectrum at […] is zero) is set as a peak end (for example: FIG. 1), the absolute value of the slope of the absorption peak on the long-wavelength side in the wavelength region at 350 to 390 nm was obtained by the following equation (Table 8): |Slope of absorption peak on long wavelength side in wavelength region of 350 to 390n|=|(Absorbance at peak end−Absorbance at absorption peak in wavelength region of 350 to 390 nm)/(Absorption wavelength at peak end−Wave length at absorption peak in wavelength region of 350 to 390 nm)| [Equation 4]

[4] = Evaluation of 5% weight reduction temperature (1) (TG/DTA); conditions: temperature increasing rate 10° C./min, 25° C. to 550° C.
Protocol: Compounds 1 to 8 and 10 to 12 were measured using a differential thermogravimetric simultaneous measurement device (TG/DTA6200, manufactured by SII Corporation) at a temperature increasing rate of 10° C./min and within a measurement range of 25° C. to 550° C., and the temperature at which 5 wt % reduction as the weight change (TG) took place was read (Table 6).

| SMILES | Absorbance at absorption peak in wavelength region of 350 to 390 nm ([1]; 10-mm quartz cell) | Absorbance at peak end ([1]; 10-mm quartz cell) | Absorption wavelength at peak end ([1]; 10-mm quartz cell) | Molar extinction coefficient at peak (maximum molar extinction coefficient: εmax) ([1]; 10-mm quartz cell) | Wave length at absorption peak in wavelength region of 350 to 390 nm (maximum absorption wavelength: λmax) ([1]; 10-mm quartz cell) | Absolute value of slope of absorption peak on long wavelength side in wavelength region of 350 to 390 nm ([1]; Equation 2) | 5% weight reduction temperature [2] | Absorbance at absoprtion peak in wavelength region of 350 to 390 nm ([3]; 10-mm quartz cell) | Absorbance at peak end ([3]; 10-mm quartz cell) | Absorption wavelength at peak end ([3]; 10-mm quartz cell) | Molar extinction coefficient at peak (maximum molar extinction coefficient: εmax) ([3]; 10-mm quartz cell) | Wave length at absorption peak in wavelength region of 350 to 390 nm (maximum absorption wavelength: λmax) ([3]; 10-mm quartz cell) | Absolute value of slope of absorption peak on long wavelength side in wavelength region of 350 to 390 nm ([3]; Equation 4) | 5% weight reduction temperature [4] |
| --- | --- | --- | --- | --- | --- | --- | --- | --- | --- | --- | --- | --- | --- | --- |
| Cc1cc(-n2nc3ccc(Cl)cc3n2)c(O)c(C(C)(C)C)c1 [Compound 12, reference compound] | 1.53 | 0.00617 | 423 nm | 15300 L/mol/cm | 353 nm | 0.022 | 230 °C | 1.76 | 0.00722 | 430 nm | 16300 L/mol/cm | 353 nm | 0.032 | 230 °C |
| CCCCCCSc1ccc2nn(-c3cc(C)cc(C(C)(C)C)c3O)nc2c1 [Compound 29] |  |  |  |  |  |  | 277 °C |  |  |  |  |  |  |  |
| Cc1ccc(Sc2ccc3nn(-c4cc(C)cc(C(C)(C)C)c4O)nc3c2)cc1 [Compound 30] |  |  |  |  |  |  | 293 °C |  |  |  |  |  |  |  |
